Source: patent publication US11427567B2, “Imidazolyl pyrimidinylamine compounds as CDK2 inhibitors” (Incyte Corporation, priority 2019, dated 2022)

Target: CDK2/Cyclin E1 (Homo sapiens (Human), UniProt P24941)
Experiment: CDK2/Cyclin E1 HTRF enzyme activity assay (Example A)
Type: biochemical
Conditions: 1 mM ATP
Method: Assays were conducted in white 384-well polystyrene plates in a final reaction volume of 8 μL. […] HTRF signals were read after 1 hour at room temperature on a PHERAstar FS plate reader (BMG Labtech). Data was analyzed with IDBS XLFit and GraphPad Prism 5.0 software using a three or four parameter dose response curve to determine IC50 for each compound.

IC50, ≤ 50 nM:
CC(C)N1CC(c2ccc(-n3cnc(-c4nc(NC5CCN(S(C)(=O)=O)CC5)ncc4C(F)(F)F)c3)c(C#N)c2)C1 [Example 427, 5-(1-Isopropylazetidin-3-yl)-2-(4-(2-((1-(methylsulfonyl)piperidin-4-yl)amino)-5-(trifluoromethyl)pyrimidin-4-yl)-1H-imidazol-1-yl)benzonitrile]
Cc1nc(-c2nc(N[C@H]3CCN(S(C)(=O)=O)C[C@H]3F)ncc2C(F)(F)F)cn1-c1ccc(CN(C)C)cc1F [Example 286, 4-(1-(4-((Dimethylamino)methyl)-2-fluorophenyl)-2-methyl-1H-imidazol-4-yl)-N-((3R,4S)-3-fluoro-1-(methylsulfonyl)piperidin-4-yl)-5-(trifluoromethyl)pyrimidin-2-amine]
CCS(=O)(=O)N1CCC(Nc2ncc(C(F)(F)F)c(-c3cn(CC(F)F)cn3)n2)CC1 [Example 328, 4-(1-(2,2-Difluoroethyl)-1H-imidazol-4-yl)-N-(1-(ethylsulfonyl)piperidin-4-yl)-5-(trifluoromethyl)pyrimidin-2-amine]
CN1CCN(c2nccc(-n3cnc(-c4nc(NC5CCN(S(C)(=O)=O)CC5)ncc4C(F)(F)F)c3)c2C#N)CC1 [Example 316, 2-(4-Methylpiperazin-1-yl)-4-(4-(2-((1-(methylsulfonyl)piperidin-4-yl)amino)-5-(trifluoromethyl)pyrimidin-4-yl)-1H-imidazol-1-yl)nicotinonitrile]
CCN(C)Cc1ccc(-n2cc(-c3nc(NC4CCN(S(C)(=O)=O)CC4)ncc3C(F)(F)F)nc2C)c(F)c1 [Example 358, 4-(1-(4-((Ethyl(methyl)amino)methyl)-2-fluorophenyl)-2-methyl-1H-imidazol-4-yl)-N-(1-(methylsulfonyl)piperidin-4-yl)-5-(trifluoromethyl)pyrimidin-2-amine]
CCN(CC)Cc1ccc(-n2cc(-c3nc(NC4CCN(S(C)(=O)=O)CC4)ncc3C(F)(F)F)nc2C)c(F)c1 [Example 357, 4-(1-(4-((Diethylamino)methyl)-2-fluorophenyl)-2-methyl-1H-imidazol-4-yl)-N-(1-(methylsulfonyl)piperidin-4-yl)-5-(trifluoromethyl)pyrimidin-2-amine]
C[C@@H]1CN(S(=O)(=O)c2cn(C)cn2)CC[C@@H]1Nc1ncc(C(F)(F)F)c(-c2cn(-c3cccc(C#N)c3Cl)cn2)n1 [Example 155, 2-Chloro-3-(4-(2-(((3R,4S)-3-methyl-1-((1-methyl-1H-imidazol-4-yl)sulfonyl)piperidin-4-yl)amino)-5-(trifluoromethyl)pyrimidin-4-yl)-1H-imidazol-1-yl)benzonitrile]
CS(=O)(=O)N1CC[C@H](Nc2ncc(C(F)(F)F)c(-c3cn(-c4cccnc4C#N)cn3)n2)[C@H](F)C1 [Example 47, 3-(4-(2-(((3R,4S)-3-Fluoro-1-(methylsulfonyl)piperidin-4-yl)amino)-5-(trifluoromethyl)pyrimidin-4-yl)-1H-imidazol-1-yl)picolinonitrile]
Cc1nc(-c2nc(N[C@H]3CCN(S(C)(=O)=O)C[C@H]3F)ncc2C(F)(F)F)cn1-c1ccc(N2CCC(N(C)C)CC2)cc1F [Example 118, 4-(1-(4-(4-(Dimethylamino)piperidin-1-yl)-2-fluorophenyl)-2-methyl-1H-imidazol-4-yl)-N-((3R,4S)-3-fluoro-1-(methylsulfonyl)piperidin-4-yl)-5-(trifluoromethyl)pyrimidin-2-amine]
C[C@@H]1CN(c2ccc(-n3cnc(-c4nc(NC5CCN(S(C)(=O)=O)CC5)ncc4C(F)(F)F)c3)c(Cl)c2)CCN1 [Example 141, (R)-4-(1-(2-Chloro-4-(3-methyl-piperazin-1-yl)-phenyl)-1H-imidazol-4-yl)-N-(1-(methyl-sulfonyl)piperidin-4-yl)-5-(trifluoro-methyl)pyrimidin-2-amine]
CS(=O)(=O)N1CCC(Nc2ncc(C(F)(F)F)c(-c3cn(-c4ccccc4Cl)cn3)n2)CC1 [Example 55, 4-(1-(2-Chlorophenyl)-1H-imidazol-4-yl)-N-(1-(methylsulfonyl)piperidin-4-yl)-5-(trifluoromethyl)pyrimidin-2-amine]
CCNCc1ccc(-n2cnc(-c3nc(NC4CCN(S(C)(=O)=O)CC4)ncc3C(F)(F)F)c2)c(C#N)c1 [Example 341, 5-((Ethylamino)methyl)-2-(4-(2-((1-(methylsulfonyl)piperidin-yl)amino)-5-(trifluoromethyl)pyrimidin-4-yl)-1H-imidazol-1-yl)benzonitrile]
CNCc1ccc(-n2cnc(-c3nc(N[C@H]4CCN(S(C)(=O)=O)C[C@H]4C)ncc3C(F)(F)F)c2)c(Cl)c1 [Example 182, 4-(1-(2-Chloro-4-((methylamino)methyl)phenyl)-1H-imidazol-4-yl)-N-((3R,4S)-3-methyl-1-(methylsulfonyl)piperidin-4-yl)-5-(trifluoromethyl)pyrimidin-2-amine]
CS(=O)(=O)N1CCC(Nc2ncc(C(F)(F)F)c(-c3cn(-c4ccc(CNC5CC5)cc4C(F)(F)F)cn3)n2)CC1 [Example 256]
CC(CN(C)C)Oc1ccc(-n2cnc(-c3nc(NC4CCN(S(C)(=O)=O)CC4)ncc3C(F)(F)F)c2)c(C(F)(F)F)n1 (stereo not shown) [Example 73, 4-(1-(6-((1-(Dimethylamino)propan-2-yl)oxy)-2-(trifluoromethyl)pyridin-3-yl)-1H-imidazol-4-yl)-N-(1-(methylsulfonyl)piperidin-4-yl)-5-(trifluoromethyl)pyrimidin-2-amine]
CS(=O)(=O)N1CCC(Nc2ncc(C(F)(F)F)c(-c3cn(-c4cccc5c4COC5=O)cn3)n2)CC1 [Example 233, 4-(4-(2-((1-(Methylsulfonyl)piperidin-4-yl)amino)-5-(trifluoromethyl)pyrimidin-4-yl)-1H-imidazol-1-yl)isobenzofuran-1(3H)-one]
CCN(CC)Cc1ccc(-n2cnc(-c3nc(NC4CCN(S(C)(=O)=O)CC4)ncc3C(F)(F)F)c2)c(C(F)(F)F)c1 [Example 258, 4-(1-(4-((Diethylamino)methyl)-2-(trifluoromethyl)phenyl)-1H-imidazol-4-yl)-N-(1-(methylsulfonyl)piperidin-4-yl)-5-(trifluoromethyl)pyrimidin-2-amine]
Cc1nc(-c2nc(NC3CCN(S(C)(=O)=O)CC3)ncc2C(F)(F)F)cn1-c1ccc(N2CC[C@H](N(C)C)C2)cc1F [Example 110, (S)-4-(1-(4-(3-(Dimethylamino)-pyrrolidin-1-yl)-2-fluorophenyl)-2-methyl-1H-imidazol-4-yl)-N-(1-(methyl-sulfonyl)piperidin-4-yl)-5-(trifluoro-methyl)pyrimidin-2-amine]
CS(=O)(=O)N1CCC(Nc2ncc(C(F)(F)F)c(-c3cn(-c4ccc(CN5CC[C@H](O)C5)cc4Cl)cn3)n2)CC1 [Example 206, (S)-1-(3 -Chloro-4-(4-(2-((1-(methyl-sulfonyl)piperidin-4-yl)amino)-5-(trifluoromethyl)-pyrimidin-4-yl)-1H-imidazol-1-yl)benzyl)-pyrrolidin-3-ol]
